Reference: patent US20080176936A1, “Classes of Compounds that Interact with Integrins” (priority 2005, published 2008)

Columns and labels:
αllbβ3 integrin = biological target: T1, αllbβ3 integrin (Homo sapiens, UniProt P05106+P08514); test: ELISA: inhibition of binding of αllbβ3 integrin membrane preparation to coated extracellular matrix protein; details: human platelet membrane preparation
T1 construct: Human platelet membrane preparations were used as a source of αllbβ3 integrin; from tissue; host or cells: human platelets (membrane preparation)
T1 sequence (P08514 32-887 limits assumed): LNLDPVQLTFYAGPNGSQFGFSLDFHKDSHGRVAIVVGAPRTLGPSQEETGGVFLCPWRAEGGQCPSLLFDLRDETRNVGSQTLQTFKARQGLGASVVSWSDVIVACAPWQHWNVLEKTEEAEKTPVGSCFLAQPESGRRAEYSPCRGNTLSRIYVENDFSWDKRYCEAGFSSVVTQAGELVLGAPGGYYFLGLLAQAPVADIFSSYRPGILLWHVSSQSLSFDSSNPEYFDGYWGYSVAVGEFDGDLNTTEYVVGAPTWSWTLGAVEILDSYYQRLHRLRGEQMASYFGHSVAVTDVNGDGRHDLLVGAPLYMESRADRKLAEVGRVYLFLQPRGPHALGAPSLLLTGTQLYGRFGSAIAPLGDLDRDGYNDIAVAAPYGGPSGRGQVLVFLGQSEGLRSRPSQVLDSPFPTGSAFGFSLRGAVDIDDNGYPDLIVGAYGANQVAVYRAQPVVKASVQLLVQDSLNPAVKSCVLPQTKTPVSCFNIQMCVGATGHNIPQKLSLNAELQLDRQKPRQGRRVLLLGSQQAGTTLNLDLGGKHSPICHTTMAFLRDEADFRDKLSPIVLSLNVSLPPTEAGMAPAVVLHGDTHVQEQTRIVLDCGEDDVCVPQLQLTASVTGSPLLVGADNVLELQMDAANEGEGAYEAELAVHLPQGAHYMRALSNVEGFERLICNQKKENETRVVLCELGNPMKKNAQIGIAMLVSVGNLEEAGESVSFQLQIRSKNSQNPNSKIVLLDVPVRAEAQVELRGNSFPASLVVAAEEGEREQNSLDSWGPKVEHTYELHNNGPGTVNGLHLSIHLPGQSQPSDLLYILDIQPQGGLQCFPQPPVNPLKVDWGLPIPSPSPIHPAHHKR
T1 sequence (P08514 891-1039 partner limits assumed): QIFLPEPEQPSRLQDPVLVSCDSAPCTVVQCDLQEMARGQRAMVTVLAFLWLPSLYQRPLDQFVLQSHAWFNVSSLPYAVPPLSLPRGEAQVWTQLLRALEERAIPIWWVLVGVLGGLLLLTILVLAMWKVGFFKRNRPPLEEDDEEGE
T1 sequence (P05106 27-788): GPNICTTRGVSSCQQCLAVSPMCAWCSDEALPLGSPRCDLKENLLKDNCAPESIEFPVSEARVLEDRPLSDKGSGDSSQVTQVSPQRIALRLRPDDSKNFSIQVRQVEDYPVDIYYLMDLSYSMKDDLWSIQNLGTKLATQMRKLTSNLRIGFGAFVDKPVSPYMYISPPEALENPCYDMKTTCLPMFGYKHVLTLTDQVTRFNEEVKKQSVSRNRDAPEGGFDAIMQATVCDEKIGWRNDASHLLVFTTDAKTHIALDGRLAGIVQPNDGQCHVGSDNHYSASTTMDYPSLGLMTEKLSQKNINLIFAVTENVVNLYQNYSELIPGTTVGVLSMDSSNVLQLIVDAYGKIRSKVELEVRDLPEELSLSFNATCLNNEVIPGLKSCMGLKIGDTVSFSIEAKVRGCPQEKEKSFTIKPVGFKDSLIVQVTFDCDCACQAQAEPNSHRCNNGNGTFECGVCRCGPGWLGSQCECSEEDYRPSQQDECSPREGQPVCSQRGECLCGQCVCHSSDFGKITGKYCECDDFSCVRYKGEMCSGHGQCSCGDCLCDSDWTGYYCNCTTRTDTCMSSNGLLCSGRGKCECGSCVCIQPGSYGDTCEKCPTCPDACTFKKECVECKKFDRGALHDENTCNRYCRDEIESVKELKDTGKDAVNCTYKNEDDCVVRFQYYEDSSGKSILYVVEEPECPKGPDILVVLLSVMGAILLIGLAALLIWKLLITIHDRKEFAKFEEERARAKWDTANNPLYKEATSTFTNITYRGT
Procedure, shortened: (§1)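 Integrin sources were human platelet membrane preparations for αIIbβ3 and WM-115 cells for αVβ3, each preincubated with test compound. Binding to fibrinogen- or vitronectin-coated plates (10 µg/well) was quantified with an anti-integrin β3 antibody and an HRP-coupled secondary antibody using colorimetric detection.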

αVβ3 integrin = biological target: T2, αVβ3 integrin (Homo sapiens, UniProt P05106+P06756); test: ELISA: inhibition of binding of αVβ3 integrin (source WM-115 cell line) to coated extracellular matrix protein; details: WM-115 cell line as integrin source
T2 construct: the cell line WM-115 was used as a source of αVβ3 integrin; endogenous in cells; host or cells: WM-115 cell line
T2 sequence (P06756 31-889 limits assumed): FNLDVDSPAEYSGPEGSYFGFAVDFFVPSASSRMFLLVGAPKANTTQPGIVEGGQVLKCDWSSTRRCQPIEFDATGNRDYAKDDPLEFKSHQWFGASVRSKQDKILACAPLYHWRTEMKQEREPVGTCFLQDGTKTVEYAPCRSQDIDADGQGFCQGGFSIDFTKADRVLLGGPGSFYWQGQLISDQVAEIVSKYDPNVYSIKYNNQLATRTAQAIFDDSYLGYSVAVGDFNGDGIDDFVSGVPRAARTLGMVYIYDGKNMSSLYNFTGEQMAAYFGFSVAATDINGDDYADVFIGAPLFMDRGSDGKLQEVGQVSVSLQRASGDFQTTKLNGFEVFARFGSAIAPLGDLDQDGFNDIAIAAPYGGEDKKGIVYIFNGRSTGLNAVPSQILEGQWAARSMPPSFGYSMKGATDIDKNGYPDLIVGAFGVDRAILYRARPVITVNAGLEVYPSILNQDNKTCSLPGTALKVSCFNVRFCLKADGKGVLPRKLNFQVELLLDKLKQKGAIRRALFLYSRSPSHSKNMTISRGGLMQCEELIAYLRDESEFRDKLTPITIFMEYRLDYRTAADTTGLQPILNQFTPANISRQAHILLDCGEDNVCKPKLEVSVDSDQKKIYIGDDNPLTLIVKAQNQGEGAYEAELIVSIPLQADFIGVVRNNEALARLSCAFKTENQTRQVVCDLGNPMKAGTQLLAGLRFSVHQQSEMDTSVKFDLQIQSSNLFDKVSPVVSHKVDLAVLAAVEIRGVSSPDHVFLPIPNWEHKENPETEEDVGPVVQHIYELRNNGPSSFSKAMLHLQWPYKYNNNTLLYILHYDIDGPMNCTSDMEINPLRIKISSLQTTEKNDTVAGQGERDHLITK
T2 sequence (P06756 891-1048 partner limits assumed): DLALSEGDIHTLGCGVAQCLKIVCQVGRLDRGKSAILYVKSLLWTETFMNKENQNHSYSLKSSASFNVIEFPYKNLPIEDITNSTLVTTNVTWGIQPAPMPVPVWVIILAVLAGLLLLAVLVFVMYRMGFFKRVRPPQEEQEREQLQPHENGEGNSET
T2 sequence (P05106 27-788): as the sequence (P05106 27-788) above
Procedure, shortened: as §1

| Structure (SMILES) | INHIBITION @ 250 uM RECEPTOR allBb3 SUBSTRATE FIBRINOGEN (αllbβ3 integrin) | INHIBITION 250 uM RECEPTOR allBb3 SUBSTRATE VITRONECTIN (αllbβ3 integrin) | INHIBITION 250 uM RECEPTOR aVb3 SUBSTRATE FIBRINOGEN (αVβ3 integrin) |
| --- | --- | --- | --- |
| Nc1cccc(COC2C(O)C(COCc3ccc(Br)cc3)OC(O)C2NC(=O)c2ccc(C(=O)O)cc2)c1 (single isomer, unassigned) [Compound 74] | − (0% to 35% inhibition at 250 micromolar) | +++ (81% to 100% inhibition at 250 micromolar) | − (0% to 35% inhibition at 250 micromolar) |
| Nc1cccc(COC2C(O)C(COCc3ccc(Br)cc3)OC(O)C2NC(=O)c2ccc(C(=O)O)cc2)c1 (single isomer, unassigned) [Compound 75] | + (36% to 60% inhibition at 250 micromolar) | +++ (81% to 100% inhibition at 250 micromolar) | − (0% to 35% inhibition at 250 micromolar) |
| CCOC1OC(COCC(=O)O)C(O)C(OCc2cccc(N)c2)C1NC(=O)c1ccc(Cl)cc1 (single isomer, unassigned) [Compound 76] | − (0% to 35% inhibition at 250 micromolar) | − (0% to 35% inhibition at 250 micromolar) | − (0% to 35% inhibition at 250 micromolar) |
| CCOC1OC(COCC(=O)O)C(O)C(OCc2cccc(N)c2)C1NC(=O)c1ccc(Cl)cc1 (single isomer, unassigned) [Compound 77] | ++ (61% to 80% inhibition at 250 micromolar) | +++ (81% to 100% inhibition at 250 micromolar) | + (36% to 60% inhibition at 250 micromolar) |
| CCOC1OC(COCc2ccc(C(=O)O)cc2)C(O)C(OCc2cccc(N)c2)C1NC(=O)c1ccc(Cl)cc1 (single isomer, unassigned) [Compound 78] | − (0% to 35% inhibition at 250 micromolar) | +++ (81% to 100% inhibition at 250 micromolar) | +++ (81% to 100% inhibition at 250 micromolar) |
| CCOC1OC(COCc2ccc(C(=O)O)cc2)C(O)C(OCc2cccc(N)c2)C1NC(=O)c1ccc(Cl)cc1 (single isomer, unassigned) [Compound 79] | + (36% to 60% inhibition at 250 micromolar) | +++ (81% to 100% inhibition at 250 micromolar) | +++ (81% to 100% inhibition at 250 micromolar) |
| Nc1cccc(COC2C(O)C(COCc3ccc(C(=O)O)cc3)OC(O)C2NC(=O)c2ccc(Cl)cc2)c1 (single isomer, unassigned) [Compound 81] | + (36% to 60% inhibition at 250 micromolar) | +++ (81% to 100% inhibition at 250 micromolar) | +++ (81% to 100% inhibition at 250 micromolar) |
| Nc1cccc(COC2C(O)C(COCc3ccc(C(=O)O)cc3)OC(O)C2NC(=O)c2ccc(Cl)cc2)c1 (single isomer, unassigned) [Compound 82] | ++ (61% to 80% inhibition at 250 micromolar) | + (36% to 60% inhibition at 250 micromolar) | ++ (61% to 80% inhibition at 250 micromolar) |
| CCOC1C(O)C(COCC(=O)O)OC(OCc2ccccc2)C1NC(=O)c1cccc(N)c1 (single isomer, unassigned) [Compound 84] | − (0% to 35% inhibition at 250 micromolar) | − (0% to 35% inhibition at 250 micromolar) | − (0% to 35% inhibition at 250 micromolar) |
| CCOC1C(O)C(COCC(=O)O)OC(OCc2ccccc2)C1NC(=O)c1cccc(N)c1 (single isomer, unassigned) [Compound 85] | − (0% to 35% inhibition at 250 micromolar) | +++ (81% to 100% inhibition at 250 micromolar) | − (0% to 35% inhibition at 250 micromolar) |
| CCOC1C(O)C(COCc2ccc(C(=O)O)cc2)OC(OCc2ccccc2)C1NC(=O)CCNC(=N)N (single isomer, unassigned) [Compound 86] | − (0% to 35% inhibition at 250 micromolar) | +++ (81% to 100% inhibition at 250 micromolar) | − (0% to 35% inhibition at 250 micromolar) |
| CCOC1C(O)C(COCc2ccc(C(=O)O)cc2)OC(OCc2ccccc2)C1NC(=O)CCNC(=N)N (single isomer, unassigned) [Compound 87] | − (0% to 35% inhibition at 250 micromolar) | +++ (81% to 100% inhibition at 250 micromolar) | − (0% to 35% inhibition at 250 micromolar) |
